What was measured:
HFpEF model mice [1] = assay: Transthoracic echocardiography in HFpEF model mice, Example 1; format: in vivo; settings: tamibarotene 3 mg/kg, peretinoin 0.3 mg/body, oral gavage once a day, five weeks; for left ventricular ejection fraction before and after drug administration: Example 1, FIG. 2; for E/e′ ratio after completion of drug administration compared with before start: Example 1, FIG. 3
Description: (§1) HFpEF model mice are generated by the method reported by Schiattarella et al. (Nature. 568 (7752): 351-356. 2019). Specifically, male mice at an age of 8 to 10 weeks are given High Fat Diet (Rodent Diet with 60% kcal % fat, D12492, Research Diets Inc.) and drinking water containing a dissolved nitric oxide synthase inhibitor (No-nitro-L-arginine methyl ester hydrochloride (L-NAME), N5751, Sigma) (at a concentration of 0.5 g/L), and kept for five weeks. Various measurements are performed to confirm the establishment of an HFpEF model.
(§2) The following drugs are administered to mouse groups while mice are continued to be given the high-fat diet and the drinking water containing the dissolved nitric oxide synthase inhibitor. AM80 (Cat. No. 3507, TOCRIS) is orally administered to tamibarotene administration group via oral gavage at a single dose of 3 mg/kg once a day. Peretinoin (Cat. No. HY-100008, MedChemExpress) is orally administered to peretinoin administration group via oral gavage at a single dose of 0.3 mg/body once a day. DMSO as a vehicle is orally administered to control group via oral gavage once a day. Administration is continued for five weeks, and various measurements are performed five weeks after the initial drug administration.
(§3) Transthoracic echocardiography is performed on mice under inhalational anesthesia with isoflurane. Transmitral flow velocity pattern (TMF) is measured by pulsed Doppler echocardiography using vevo 3100 (FUJIFILM VisualSonics) equipped with a 30 MHz probe for small animals (MX-400) to determine the early diastolic inflow velocity pattern (E-wave). Early diastolic mitral annular velocity (e′) is measured by tissue Doppler echocardiography. The transmitral E velocity is divided by the e′ velocity to calculate an E/e′ ratio. LV end-systolic diameter and LV end-diastolic diameter are measured by M-mode echocardiography to calculated an LV ejection fraction (EF %).

HFpEF model mice [2] = assay: Pressure-volume loop analysis with conductance catheter in HFpEF model mice, Example 1; format: in vivo; settings: Example 1, FIG. 4; tamibarotene 3 mg/kg, peretinoin 0.3 mg/body, oral gavage once a day, five weeks
Description: as §1
as §2, with “administration. […]” for “administration.”

HFpEF model mice [3] = assay: Heart weight/tibia length measurement in HFpEF model mice, Example 2; format: in vivo; settings: Example 2, FIG. 5; tamibarotene 3 mg/kg, peretinoin 10 mg/kg, oral gavage once a day, five weeks; compared among groups incl. DMSO control
Description: as §1
as §2, with “10 mg/kg” for “0.3 mg/body”
Mice are euthanized after the catheterization, and the heart is harvested for weight measurement. […]

HFpEF model mice [4] = assay: Transthoracic echocardiography in HFpEF model mice, Example 2; format: in vivo; settings: tamibarotene 3 mg/kg, peretinoin 10 mg/kg, oral gavage once a day, five weeks; for left ventricular ejection fraction before and after drug administration: Example 2, FIG. 6; for E/e′ ratio after completion of drug administration compared with before start: Example 2, FIG. 7
Description: as §1
as §2, with “10 mg/kg” for “0.3 mg/body”
as §3

HFpEF model mice [5] = assay: Pressure-volume loop analysis with conductance catheter in HFpEF model mice, Example 2; format: in vivo; settings: Example 2, FIG. 8; tamibarotene 3 mg/kg, peretinoin 10 mg/kg, oral gavage once a day, five weeks
Description: as §1
as §2, with “10 mg/kg” for “0.3 mg/body”, “administration. […]” for “administration.”

HFpEF model mice [6] = assay: Masson's trichrome staining of heart tissue of HFpEF model mice, Example 2; format: in vivo; settings: Example 2, FIG. 9; tamibarotene 3 mg/kg, peretinoin 10 mg/kg, oral gavage once a day, five weeks; 400-fold
Description: as §1
as §2, with “10 mg/kg” for “0.3 mg/body”, “Administration is continued for five weeks, and various measurements are performed five weeks after the initial drug administration.” left out
Tissue specimens are prepared from the harvested heart, and stained with Masson's trichrome staining. The tissue fibrosis is photographed, and the images are analyzed using Image J for assessment.

HFpEF model mice [7] = assay: Diastolic function of HFpEF model mice, overall conclusion from Examples 1 and 2; format: in vivo; settings: summary of Examples 1 and 2
Description: as §1
The following drugs are administered to mouse groups while mice are continued to be given the high-fat diet and the drinking water containing the dissolved nitric oxide synthase inhibitor. […]
as §3, with “The transmitral E velocity is divided by the e′ velocity to calculate an E/e′ ratio.” left out, “%). […]” for “%).”

HFpEF patients = settings: clinical studies, Anker S et al., N Engl J Med 2021; cited from earlier work

Row | SMILES | left ventricular ejection fraction before and after drug administration (HFpEF model mice [1]) | E/e′ ratio after completion of drug administration compared with before start (HFpEF model mice [1]) | stiffness constant β compared with control group (HFpEF model mice [2]) | heart weight/tibia length ratio after completion of drug administration (HFpEF model mice [3]) | left ventricular ejection fraction before and after drug administration (HFpEF model mice [4]) | E/e′ ratio after completion of drug administration compared with before start (HFpEF model mice [4]) | stiffness constant β compared with control group (HFpEF model mice [5]) | tissue fibrosis (fibrosis area, high-power field) compared with control group (HFpEF model mice [6]) | effect on the diastolic function of the HFpEF model mice (HFpEF model mice [7]) | efficacy for HFpEF patients (HFpEF patients)
1 | CC(C)=CCC/C(C)=C/CC/C(C)=C/C=C/C(C)=C/C(=O)O [peretinoin] | no difference | significantly reduced | reduced | no significant difference | no difference | significantly reduced | significantly reduced | significantly reduced | improving effect | 
2 | OC[C@H]1O[C@@H](c2ccc(Cl)c(Cc3ccc(O[C@H]4CCOC4)cc3)c2)[C@H](O)[C@@H](O)[C@@H]1O [Empagliflozin] |  |  |  |  |  |  |  |  |  | effective
3 | CC1(C)CCC(C)(C)c2cc(NC(=O)c3ccc(C(=O)O)cc3)ccc21 [tamibarotene] | no difference | significantly reduced | reduced | no significant difference | no difference | significantly reduced | significantly reduced | significantly reduced | improving effect | 

— patent US20250295620A1, “PHARMACEUTICAL COMPOSITION FOR TREATMENT OF HEART FAILURE WITH DIASTOLIC DYSFUNCTION” (NATIONAL UNIVERSITY CORPORATION TOKAI NATIONAL HIGHER …, priority 2022, published 2025)
